How the values were obtained:
[1] = tested on: ischemic preconditioning (IPC) cardioprotection; conditions: cited from earlier work; for Inhibition of the triggering step of IPC (in words): ref [21],[40],[41],[42],[43]; for Effect on cardioprotection by preconditioning (in words): ref [21]
Method: IPC is a powerful and robust cardioprotective mechanism. In the current study, we wanted to examine if IPC in combination with Gap peptides would interfere with infarct size limitation. […] Peptides were added prior to and during three cycles of ischemic preconditioning pretreatment before prolonged global ischemia but not at the following reperfusion. When combining Gap26 and ischemic preconditioning, the protection agains ... || Through the years, multiple attempts have been made to use cardioprotection by IPC or pharmacological interventions that mimic IPC to reduce infarct size in the clinic. So far, this has been without success when carried through to large phase 3 clinical studies. Adaption to stress is a beneficial endogenous mechanism closely related to injury mechanisms.

[2] = tested on: subsarcolemmal mitochondria isolated from perfused rat hearts; assay: High-resolution respirometry of isolated subsarcolemmal mitochondria; type: biochemical, male Wistar rat; conditions: pH 7.4, 37 °C; for Oxygen flux, +Oligomycin: oligomycin 4 µg/mL; for Oxygen flux, +Oligomycin / Oxygen flux, +ADP 50 µM / Oxygen flux, Glutamate + Maleate / Oxygen flux, OXPHOS Saturating +ADP 2.5 mM / Oxygen flux, State 4 (LEAK ATP): mean ± SEM, n = 3; for Oxygen flux, +ADP 50 µM / Oxygen flux, Glutamate + Maleate / Oxygen flux, OXPHOS Saturating +ADP 2.5 mM / Oxygen flux, State 4 (LEAK ATP): 10 min preincubation on ice
Method: (§1) All experiments were approved by the Norwegian animal research authority and were performed according to the Norwegian Animal Welfare Act and the European Convention for the Protection of Vertebrate Animals Used for Experimental and other Scientific Purposes (ETS No. 123 and 2010/63/EU). Male Wistar rats 250–350 g (Charles River, UK) were anesthetized with pentobarbital (100 mg/kg i.p.) and heparinized (300 IU i.p.), the chest opened and the heart removed.
Hearts were control perfused or subjected to IPC. Isolation of mitochondria was performed using the procedure described by Palmer et al. (1977) with minor modifications. All procedures were performed on ice or at 4 °C. Briefly, the ventricles were removed, weighed and placed in the buffer containing (in mM): 100 KCl, 50 MOPS, 1 EGTA, 5 MgSO4, 1 ATP and pH 7.4. Heart tissue was minced with scissors in a small volume of buffer. Buffer plus bovine serum albumin BSA (2 mg/mL) were added, and the tissue suspension was homogenized with Polytron for 7 s and thereafter with two strokes of a Potter-Elvehjem homogenizer (Glas-Col, Terre Haute, IN, USA) and centrifuged at 590× g for 10 min at 4 °C. The supernatant was filtered through a nylon net (NITEX 300 lm; Yulee, FL, USA). Supernatants now containing mitochondria mainly from the subsarcolemmal compartment (SSM fraction) were centrifuged at 3000× g for 10 min at 4 °C, and the SSM pellet was again resuspended in the buffer plus BSA and centrifuged at 3000× g for 10 min. The pellet was resuspended in the buffer containing (in mM): 100 KCl, 50 MOPS 50, 0.5 EGTA and pH 7.4 and centrifuged at 3000× g for 10 min at 4 °C. The final pellet was resuspended in this buffer and left on ice for 30 min for stabilization of membranes.
Measurement of mitochondrial oxygen consumption was performed in an oxygraph (Oxygraph 2k; Oroboros Instruments, Innsbruck, Austria) using a respiration medium [100 KCl; 50 MOPS; 1 EGTA; 5 KH2PO4 (all in mM); BSA 1 mg mL) and pH = 7.4] in a closed 2 mL chamber at 37 °C. Glutamate (5.0 mM) and malate (2.5 mM) were used as substrates. After obtaining stable respiration O2 flux (nmol O2/min/mL), ADP was added to a final concentration of 50 µM to measure coupled respiration. After depletion of ADP and stable respiration, a saturating ADP amount (2.5 mM) was added to obtain max coupled respiration (OxPhos). Finally, oligomycin was added to a final concentration of 4 µg/mL to inhibit the ATP-synthase, and a stable state oligomycin measurement was recorded. At the end of the experiments, protein content was estimated by the Bradford method, and citrate synthase activity was measured. Results of O2 flux measurements (nmol O2/min) were normalized to citrate synthase activity (IU µmol/min) in the sample. Phosphate/oxygen ratio (P/O ratio) was calculated as ADP phosphorylated divided by oxygen molecules consumed. The respiratory control ratio (RCR) was calculated as the ratio between max state 3 (OxPhos) and […].
In order to assess the effect of Gap26 and Gap27 on mitochondrial respiration, peptides in concentrations 0.5, 5.0 and 50.0 µM were added to the isolated mitochondria. After 10 min preincubation on ice 60 µL of the suspension was added to the oxygraphy, and peptide concentration was adjusted to the new volume, so the final peptide concentration was the same during the whole experiment. Each subgroup consisted of samples from 3–4 hearts, and care was taken to minimize variability by testing the different Gap peptides and concentrations concomitantly in every heart at the same time using multiple respiratory chambers.
Statistical analysis was performed by SigmaPlot version 14.5 (Systate Software Inc. Chicago, IL, USA) using one-way or two-way ANOVA followed by the Holms Sidac method as a post hoc test when appropriate. Results are presented as mean ± SEM except for binding kinetics, which is presented as mean ± SD (n = 3–4).

[3] = tested on: isolated perfused male rat hearts (connexin43 hemichannels); assay: Infarct size (TTC staining) after global ischemia-reperfusion, Langendorff-perfused heart; design: species or system male Wistar rat
Method: as §1
(§2) The heart was immediately submerged in an ice-cold buffer and quickly mounted on the perfusion apparatus, where it was perfused with the Krebs–Henseleit buffer (gassed with 5% CO2 and 95%O2) in a constant pressure Langendorff setup (100 cm H2O). The temperature was kept at 37 °C during the whole experiment by keeping the heart submerged in a heated buffer. Left ventricular pressure was recorded using a balloon catheter connected to a pressure transducer. Coronary flow was measured by timed collections of perfusate.
(§3) Hearts were stabilized for 15 min, then either subjected to 30 min of global ischemia and 2 h of reperfusion or preconditioning with 3 cycles of 5 min of ischemia and reperfusion (IPC) before 30 min of global ischemia and 2 h of reperfusion. Care was taken to secure controls corresponding in time and rat batch with the intervention experiments.
Connexin mimetic peptides Gap19 (amino acid sequence KQIEKKFK), Gap26 (VCYDKSFPISHVR) and Gap27 (SRPTEKTIFII) from Pepnome Inc., Hong Kong, China, were dissolved in the Krebs–Henseleit buffer to a final concentration of 0.5 µM [7, 12] and used in experiments the same day. Amino-acid sequences were confirmed by mass spectrometry analysis. The hearts that were subject to ischemia without IPC received the peptides prior to and after 30 min global ischemia. The hearts that were subject to IPC received the peptides during the preconditioning cycles only prior to 30 min ischemia.
At the end of reperfusion, the heart was immediately cut off caudal to the atria yielding only ventricular tissue. The ventricular tissue was then weighed in its wet state and immediately frozen to −18 °C for 24 h, sliced into four or five 2 mm thick slices and dyed with 1% 2, 3, 5 triphenyl tetrazolium chloride (TTC) (Sigma-Aldrich Co., Ltd., St. Louis, MI, USA) in Dulbecco’s phosphate buffered saline (PBS) (Sigma-Aldrich Co.). Each heart was submerged in 50mL of 1% TTC in PBS for 20 min at 37 °C in a light-free environment. Thereafter the slices were quickly dried and fixed in 4% formaldehyde for 30 min before they were scanned by a high-resolution scanner; the images were then blind-coded. Infarcts were manually traced, and the area of infarct relative to the whole area was quantified using Image J software. […]

[4] = tested on: isolated perfused male rat hearts; assay: Coronary flow in isolated perfused heart; design: species or system male Wistar rat; conditions: before 30 min ischemia; Gap peptide in buffer
Method: as §1, §2
as §3, with “experiments. […]” for “experiments.”

[5] = tested on: isolated perfused male rat hearts; assay: Left ventricular function (LVDP, EDP) after ischemia-reperfusion, Langendorff-perfused heart; design: species or system male Wistar rat; conditions: % recovery of initial preischemic LVDP after 30 min ischemia and 120 min reperfusion; peptide during IPC
Method: as §1, §2
as §3, with “experiments. […]” for “experiments.”

[6] = control hearts (crt), peptide 0.5 µM
[7] = control hearts (crt), peptide 5 µM
[8] = control hearts (crt), peptide 50 µM

Which “Inhibition of the triggering step of IPC (in words)” value (shortened to “Inhibition”) [1] does the source give for `COc1ccc2[nH]cc(CCNC(C)=O)c2c1` [melatonin] here?
The value was “inhibit the triggering step of IPC”.

Which “Effect on cardioprotection by preconditioning (in words)” value [1] does the source give for `CCCN(CCC)S(=O)(=O)c1ccc(C(=O)O)cc1` [probenecid] here?
Its value is “could inhibit this effect”.

Which “Inhibition” value [1] does the source give for `CC(=O)Oc1ccccc1C(=O)O` [acetylsalicylic acid (aspirin), acetylsalicylic acid] here?
Its value is “inhibit the triggering step of IPC”.

What does the source list for KQIEKKFK [Gap19]?
Mitochondrial respiration / average oxygen flux, RCR or P/O ratio (in words) ([2]; Gap peptides 0.5, 5, 50 µM added in vitro to isolated mitochondria from control or IPC hearts, glutamate + malate): not able to detect significant change; Oxygen flux, +Oligomycin ([2]; IPC hearts, peptide 0.5 µM): 37.8 ± 7.4 nmol O2 (µmol IU CS Activity)^−1; Oxygen flux, +ADP 50 µM ([2]; IPC hearts, peptide 0.5 µM): 69.8 ± 28.0 nmol O2 (µmol IU CS Activity)^−1; Oxygen flux, Glutamate + Maleate ([2]; IPC hearts, peptide 0.5 µM): 15.2 ± 4.2 nmol O2 (µmol IU CS Activity)^−1; Oxygen flux, OXPHOS Saturating +ADP 2.5 mM ([2]; IPC hearts, peptide 0.5 µM): 92.5 ± 25.1 nmol O2 (µmol IU CS Activity)^−1; Oxygen flux, State 4 (LEAK ATP) ([2]; IPC hearts, peptide 0.5 µM): 21.2 ± 5.3 nmol O2 (µmol IU CS Activity)^−1; Oxygen flux, +Oligomycin ([2]; IPC hearts, peptide 5 µM): 39.0 ± 3.7 nmol O2 (µmol IU CS Activity)^−1; Oxygen flux, +ADP 50 µM ([2]; IPC hearts, peptide 5 µM): 71.4 ± 7.5 nmol O2 (µmol IU CS Activity)^−1; Oxygen flux, Glutamate + Maleate ([2]; IPC hearts, peptide 5 µM): 15.9 ± 1.7 nmol O2 (µmol IU CS Activity)^−1; Oxygen flux, OXPHOS Saturating +ADP 2.5 mM ([2]; IPC hearts, peptide 5 µM): 98.3 ± 10.5 nmol O2 (µmol IU CS Activity)^−1; Oxygen flux, State 4 (LEAK ATP) ([2]; IPC hearts, peptide 5 µM): 21.0 ± 2.6 nmol O2 (µmol IU CS Activity)^−1; Oxygen flux, +Oligomycin ([2]; IPC hearts, peptide 50 µM): 44.2 ± 7.5 nmol O2 (µmol IU CS Activity)^−1; Oxygen flux, +ADP 50 µM ([2]; IPC hearts, peptide 50 µM): 76.8 ± 21.6 nmol O2 (µmol IU CS Activity)^−1; Oxygen flux, Glutamate + Maleate ([2]; IPC hearts, peptide 50 µM): 19.6 ± 6.1 nmol O2 (µmol IU CS Activity)^−1; Oxygen flux, OXPHOS Saturating +ADP 2.5 mM ([2]; IPC hearts, peptide 50 µM): 116.2 ± 37.7 nmol O2 (µmol IU CS Activity)^−1; Oxygen flux, State 4 (LEAK ATP) ([2]; IPC hearts, peptide 50 µM): 24.0 ± 6.1 nmol O2 (µmol IU CS Activity)^−1; Oxygen flux, +Oligomycin [2, 6]: 42.8 ± 4.5 nmol O2 (µmol IU CS Activity)^−1; Oxygen flux, +ADP 50 µM [2, 6]: 68.9 ± 6.5 nmol O2 (µmol IU CS Activity)^−1; Oxygen flux, Glutamate + Maleate [2, 6]: 16.6 ± 5.0 nmol O2 (µmol IU CS Activity)^−1; Oxygen flux, OXPHOS Saturating +ADP 2.5 mM [2, 6]: 89.2 ± 35.6 nmol O2 (µmol IU CS Activity)^−1; Oxygen flux, State 4 (LEAK ATP) [2, 6]: 23.8 ± 5.2 nmol O2 (µmol IU CS Activity)^−1; Oxygen flux, +Oligomycin [2, 7]: 43.5 ± 2.6 nmol O2 (µmol IU CS Activity)^−1; Oxygen flux, +ADP 50 µM [2, 7]: 75.1 ± 11.3 nmol O2 (µmol IU CS Activity)^−1; Oxygen flux, Glutamate + Maleate [2, 7]: 16.6 ± 2.6 nmol O2 (µmol IU CS Activity)^−1; Oxygen flux, OXPHOS Saturating +ADP 2.5 mM [2, 7]: 113.7 ± 12.9 nmol O2 (µmol IU CS Activity)^−1; Oxygen flux, State 4 (LEAK ATP) [2, 7]: 22.1 ± 1.6 nmol O2 (µmol IU CS Activity)^−1; Oxygen flux, +Oligomycin [2, 8]: 44.6 ± 5.1 nmol O2 (µmol IU CS Activity)^−1; Oxygen flux, +ADP 50 µM [2, 8]: 78.9 ± 14.0 nmol O2 (µmol IU CS Activity)^−1; Oxygen flux, Glutamate + Maleate [2, 8]: 18.2 ± 0.9 nmol O2 (µmol IU CS Activity)^−1; Oxygen flux, OXPHOS Saturating +ADP 2.5 mM [2, 8]: 115.3 ± 8.7 nmol O2 (µmol IU CS Activity)^−1; Oxygen flux, State 4 (LEAK ATP) [2, 8]: 24.8 ± 3.0 nmol O2 (µmol IU CS Activity)^−1; Cardioprotection / infarct size reduction when combined with IPC (in words) ([3]; Gap peptide prior to and during three IPC cycles, not at reperfusion): protection was maintained; Infarct size in % of untreated control infarcts, Gap peptide combined with IPC ([3]; IPC 3 cycles of 5 min ischemia/reperfusion, Gap peptide 0.5 µM (Figure 1 legend: 0.05 µM) only during preconditioning cycles before 30 min global ischemia, 2 h reperfusion, TTC, mean ± SEM): 60.9 ± 5.1%; Infarct size reduction (in words) ([3]; no IPC, Gap peptide immediately prior to ischemia and first 10 min of reperfusion): reducing infarct size to the same degree as ischemic preconditioning; Infarct size in % of untreated control infarcts ([3]; no IPC, isolated rat heart, 37 °C, Gap peptide 0.5 µM (Figure 1 legend: 0.05 µM) prior to and after 30 min global ischemia, 2 h reperfusion, TTC, mean ± SEM): 76.2 ± 2.7%; Coronary flow at baseline (in words) [4]: significantly reduced with Gap19 compared to control (p < 0.05); Recovery of LVDP, Gap peptide combined with IPC (in words) [5]: significant increase in % recovery of LVDP (p < 0.05)

Which “Inhibition” value [1] does the source give for `O=c1[nH]c(=O)c2[nH]c(=O)[nH]c2[nH]1` [uric acid] here?
The value was “inhibit the triggering step of IPC”.

And the “Effect on cardioprotection by preconditioning (in words)” value [1]?
Its value is “blocks cardioprotection by preconditioning”.

— publication PMC9456187, “The Ambivalence of Connexin43 Gap Peptides in Cardioprotection of the Isolated Heart against Ischemic Injury” (International Journal of Molecular Sciences, 2022)
